Data taken from patent US11584740B2 (priority 2017, dated 2023).

Assays:
Fusarium culmorum = format: cell-based; details: 20 ppm; compared to untreated control; inhibition of growth determined photometrically 3-4 days after application, 24° C.
[1] = tested on: Monographella nivalis (Microdochium nivale); assay: Monographella nivalis (Microdochium nivale) / liquid culture (foot rot cereals); format: cell-based; details: 20 ppm; compared to untreated control; inhibition of growth determined photometrically 4-5 days after application, 24° C.
Protocol: Monographella nivalis (Microdochium nivale)/Liquid Culture (Foot Rot Cereals)
(§1) Conidia of the fungus from cryogenic storage are directly mixed into nutrient broth (PDB potato dextrose broth). After placing a (DMSO) solution of test compound into a microtiter plate (96-well format), the nutrient broth containing the fungal spores is added. The test plates are incubated at 24° C. and the inhibition of growth is determined photometrically 4-5 days after application.

[2] = tested on: Glomerella lagenarium (Colletotrichum lagenarium); assay: Glomerella lagenarium (Colletotrichum lagenarium) / liquid culture (anthracnose); format: cell-based; details: 20 ppm; compared to untreated control; inhibition of growth measured photometrically 3-4 days after application, 24° C.
Protocol: Glomerella Lagenarium (Colletotrichum lagenarium)/Liquid Culture (Anthracnose)
as §1, with “measured” for “determined”, “3-4” for “4-5”

[3] = tested on: Magnaporthe grisea (Pyricularia oryzae); format: cell-based; details: 20 ppm; compared to untreated control; inhibition of growth determined photometrically 3-4 days after application, 24° C.
[4] = tested on: Botryotinia fuckeliana (Botrytis cinerea); assay: Botryotinia fuckeliana (Botrytis cinerea) / liquid culture (gray mould); format: cell-based; details: 20 ppm; compared to untreated control; inhibition of growth determined photometrically 3-4 days after application, 24° C.
Protocol: Botryotinia fuckeliana (Botrytis cinerea)/Liquid Culture (Gray Mould)
as §1, with “(Vogels” for “(PDB potato dextrose”, “3-4” for “4-5”

Gaeumannomyces graminis = Gaeumannomyces graminis / liquid culture (take-all of cereals); format: cell-based; details: 20 ppm; compared to untreated control; inhibition of growth determined photometrically 4-5 days after application, 24° C.
Protocol: Gaeumannomyces graminis/Liquid Culture (Take-all of Cereals)
as §1, with “Mycelial fragments of” for “Conidia of”, “storage were” for “storage are”, “spores iss” for “spores is”

Question: Which “control of Fusarium culmorum” value (Fusarium culmorum) does the source give for CC(C)CC(C)(Cc1ccc(Cl)s1)C(=O)Nc1cnc2c(F)cccc2c1 (stereo not shown) [Compound E1, 2-[(5-chloro-2-thienyl)methyl]-N-(8-fluoro-3-quinolyl)-2,4-dimethyl-pentanamide] here?
Answer: at least 80%

Question: And the “control of Monographella nivalis” value [1]?
Answer: at least 80%

Question: And the “control of Glomerella lagenarium” value [2]?
Answer: at least 80%

Question: And the “control of Magnaporthe grisea” value [3]?
Answer: at least 80%

Question: And the “control of Botryotinia fuckeliana” value [4]?
Answer: at least 80%

Question: And the “control of Gaeumannomyces graminis” value (Gaeumannomyces graminis)?
Answer: at least 80%

Question: What about the melting point of the same compound?
Answer: 142 to 145 °C
